In patent publication US20090156645A1, “Method for Increasing the Susceptibility of Peptide Deformylase Inhibitors by Using Efflux Pump Inhibitors” (priority 2004, published 2009):
Values after ≈ are worked out from the molar mass of the structure shown. Where two headings read alike, the source gives them in different places. Where a SMILES comes first, the peptide text is derived from it. The star is where a group is joined. βNA = c1ccc2cc(N*)ccc2c1

How the values were obtained:
[1] = test system: H. influenzae; test: microbe, parasite or virus in culture; type: cell-based, Haemophilus influenzae; details: for effect of inactivation of HI1462 on susceptibility: H. influenzae NB65044; for MIC: Haemophilus influenzae; for effect of insertional inactivation of acrB on susceptibility: laboratory strain NB65044
Protocol: L-broth or L-agar (Difco) is used for routine growth of Escherichia coli (E. coli). Chocolate agar plates (Remel) are used for routine growth of H. influenzae. Brain heart infusion broth (Remel) supplemented with 10 μg/mL of β-NAD (Fluka) and 10 μg/mL hemin/vitamin K solution (sBHI) (Remel) is used for liquid broth cultivation of H. influenzae. For induction of natural competence in H. influenzae, nutritional downshift is induced using M-IV medium as described previously. See Poje and Redfield, Methods Mol Med, Vol. 71, No., pp. 57-70 (2003). Kanamycin is added to growth media at 50 μg/mL (E. coli) or 5 μg/mL (H. influenzae) as required.
Antibiotic and substrate MICs are determined by broth microdilution using 2-fold dilution in HTM in accordance with the procedures established by the National Committee for Clinical Laboratory Standards (NCCLS). See NCCLS, Approved standard M7-A5, Wayne, Pa. (2003). PDF inhibitors are synthesized at the Novartis Institutes for BioMedical Research, Cambridge, Mass. All remaining antibiotics are obtained from Sigma (St. Louis, Mo.).

[2] = test system: E. coli; test: MIC of LBM415 in E. coli with or without AcrAB-TolC pump function; type: cell-based; details: Escherichia coli
Protocol: (§1) For E. coli testing, strain NB27006 is used. This strain is deficient in its native AcrAB pump (described in H Okusu et al. J. Bacteriol. 1996 178: 306-308) and is a suitable host for cloning the H. influenzae acrAB pump genes.
(§2) E. coli: MIC determines are conducted as described above except using Mueller-Hinton test medium.
12). The acrAB containing product is cloned into Topo PCR2.1 (Invitrogen) and transformed into Top10 competent cells (Invitrogen). An insert bearing plasmid is isolated and sequenced to ensure that mutations are not introduced during PCR and cloning. This plasmid is then transformed into E. coli strain NB27006, which lacks its native AcrAB-ToIC pump function.
To further examine this, the H. influenzae acrAB genes are cloned and used to complement, in trans, an AcrAB pump deficiency in E. coli strain NB27006.

[3] = test system: H. influenzae NB65044-CDS0011; test: Potentiation of antibiotic MIC by efflux inhibitor (two-axis 96-well plates); type: cell-based, Haemophilus influenzae; details: H. influenzae overexpressing AcrAB; data not shown
Protocol: H. influenzae NB65044-CDS0011 is used for H. influenzae testing. This strain has increased pump expression which is thought to result in more sensitive detection of pump inhibition.
H. influenzae: MIC determinations are conducted in 96 well sterile plates with a range of LBM415 along one axis and range of efflux inhibitor along the other axis. Medium used is HTM (Remel). Inoculum is set to approximately […] bacteria per well using the BBL prompt system.

[4] = test system: E. coli strain NB27006 complemented with H. influenzae acrAB genes; test: Potentiation of antibiotic MIC by efflux inhibitor in E. coli carrying the H. influenzae acrAB genes; type: cell-based, Escherichia coli; details: E. coli complemented in trans with H. influenzae acrAB genes
Protocol: as §1, §2
Genes encoding H. influenzae AcrAB pump components are PCR amplified from NB65044 genomic DNA using the primers acrA prom F1 (5′-AATTA[…]-3′) (SEQ ID NO. 11) and acrBR3 […] 5′-[…]-3″) (SEQ ID NO. 12). The acrAB containing product is cloned into Topo PCR2.1 (Invitrogen) and transformed into Top10 competent cells (Invitrogen). An insert bearing plasmid is isolated and sequenced to ensure that mutations are not introduced during PCR and cloning. This plasmid is then transformed into E. coli strain NB27006, which lacks its native AcrAB-ToIC pump function.
Since efflux pumps are impacted by such factors as outer membrane permeability, and E. coli is thought to have a less permeable outer membrane than H. influenzae (possibly accounting for increased impact of efflux on drug resistance), it has reasoned that the detection of H. influenzae AcrAB pump inhibition might be more sensitive in an E. coli background. […] This is interesting in that the native E. coli AcrAB-ToIC pump does extrude tetracycline.

[5] = strain NB65016 (clinical isolate), read-out: MIC
[6] = strain NB65016-CDS0004, knockout acrB
[7] = strain NB65027 (clinical isolate), read-out: MIC
[8] = strain NB65027-CDS0003, knockout HI1462
[9] = strain NB65027-CDS0021, knockout acrB
[10] = strain NB65044 (Rd KW20, parent laboratory strain), read-out: MIC
[11] = strain NB65044-CDS0001 (NB65044 acrB::Km)
[12] = strain NB65044-CDS0020 (Table 1: NB65044 acrB::Km)
[13] = strain NB65051 (clinical isolate), read-out: MIC
[14] = strain NB65051-CDS0002, knockout acrB
[15] = strain NB65051-CDS0022, knockout HI1462
[16] = strain NB65063 (clinical isolate), read-out: MIC
[17] = strain NB65063-CDS0005, knockout acrB
[18] = strain NB65069 (clinical isolate), read-out: MIC
[19] = strain NB65069-CDS0007, knockout acrB
[20] = strain NB65076 (clinical isolate), read-out: MIC
[21] = strain NB65076-CDS0006, knockout acrB

Structure (SMILES)	effect of inactivation of HI1462 on susceptibility [1]	MIC [1, 5] [µg/mL]	MIC [1, 6] [µg/mL]	MIC [1, 7] [µg/mL]	MIC [1, 8] [µg/mL]	MIC [1, 9] [µg/mL]	MIC [1, 10] [µg/mL]	MIC [1, 11] [µg/mL]	MIC [1, 12] [µg/mL]	MIC [1, 13] [µg/mL]	MIC [1, 14] [µg/mL]	MIC [1, 15] [µg/mL]	MIC [1, 16] [µg/mL]	MIC [1, 17] [µg/mL]	MIC [1, 18] [µg/mL]	MIC [1, 19] [µg/mL]	MIC [1, 20] [µg/mL]	MIC [1, 21] [µg/mL]	effect of insertional inactivation of acrB on susceptibility [1]	potentiation of LBM415 activity [3]	also measured
CC[C@H]1OC(=O)[C@H](C)[C@@H](O[C@H]2C[C@@](C)(OC)[C@@H](O)[C@H](C)O2)[C@H](C)[C@@H](O[C@@H]2O[C@H](C)C[C@H](N(C)C)[C@H]2O)[C@](C)(O)C[C@@H](C)C(=O)[C@H](C)[C@@H](O)[C@]1(C)O [ERM, erythromycin]	increases susceptibility	16 (≈ 21.8 µM)	0.25 (≈ 0.341 µM)	16 (≈ 21.8 µM)	0.125 (≈ 0.17 µM)	0.25 (≈ 0.341 µM)	4 (≈ 5.45 µM)	0.25 (≈ 0.341 µM)	0.25 (≈ 0.341 µM)	16 (≈ 21.8 µM)	0.25 (≈ 0.341 µM)	0.125 (≈ 0.17 µM)	8 (≈ 10.9 µM)	0.25 (≈ 0.341 µM)	16 (≈ 21.8 µM)	0.125 (≈ 0.17 µM)	16 (≈ 21.8 µM)	0.125 (≈ 0.17 µM)	increases susceptibility		
CCCC[C@H](CN(O)C=O)C(=O)N1CCC[C@H]1C(=O)Nc1ccc(F)c[n+]1[O-] [LBM415]	increases susceptibility	16 (≈ 40.4 µM)	0.25 (≈ 0.631 µM)	32 (≈ 80.7 µM)	0.5 (≈ 1.26 µM)	0.5 (≈ 1.26 µM)	4 (≈ 10.1 µM)	0.25 (≈ 0.631 µM)	0.125 (≈ 0.315 µM)	32 (≈ 80.7 µM)	0.25 (≈ 0.631 µM)	0.25 (≈ 0.631 µM)	32 (≈ 80.7 µM)	1 (≈ 2.52 µM)	16 (≈ 40.4 µM)	0.25 (≈ 0.631 µM)	16 (≈ 40.4 µM)	0.25 (≈ 0.631 µM)	significantly increases susceptibility		MIC ([1]; strain NB65062 (clinical isolate, hyper-susceptible, acrA deletion), read-out: MIC): ≤ 0.25 µg/mL; MIC ([1]; strain NB65062-CDS0037 (NB65062 complemented for acrA deficiency), read-out: MIC): 8 µg/mL (≈ 20.2 µM); MIC ([1]; strain NB65062-CDS0038 (NB65062 complemented for acrA deficiency), read-out: MIC): 8 µg/mL (≈ 20.2 µM); decrease in susceptibility ([1]; acrR insertionally inactivated in NB65044 (NB65044-CDS0008) versus parent): 2 fold; decrease in susceptibility ([1]; two acrR mutants of NB65044 selected on 8 μg/mL LBM415 versus parent): 8 fold; MIC ([2]; E. coli strain NB27006 complemented with the H. influenzae acrAB genes): 32 µg/mL; MIC ([2]; E. coli strains deficient in AcrAB-ToIC pump function, typical value): ~1 µg/mL; MIC ([2]; E. coli with native AcrAB-ToIC pump, typical value): ≥ 128 µg/mL
N=C(N)NCCC[C@H](NC(=O)[C@@H](N)Cc1ccccc1)C(=O)Nc1ccc2ccccc2c1 [MC-207,110] (H-Phe-Arg-βNA)																				potentiation	potentiation of clindamycin [3]: potentiate; potentiation of tetracycline (pump non-substrate) [3]: no potentiation; potentiation of LBM415 [4]: potentiating activity; potentiation of clindamycin [4]: potentiating activity; potentiation of tetracycline [4]: no potentiation
COC(=O)[C@H]1[C@H]2C[C@@H]3c4[nH]c5cc(OC)ccc5c4CCN3C[C@H]2C[C@@H](OC(=O)c2cc(OC)c(OC)c(OC)c2)[C@@H]1OC [Reserpine]																				did not potentiate	potentiation of clindamycin [3]: did not potentiate
CN(C)[C@@H]1C(O)=C(C(N)=O)C(=O)[C@@]2(O)C(O)=C3C(=O)c4c(O)cccc4[C@@](C)(O)[C@H]3C[C@@H]12 [TET, tetracycline]			1 (≈ 2.25 µM)		1 (≈ 2.25 µM)	0.5 (≈ 1.13 µM)		0.5 (≈ 1.13 µM)	1 (≈ 2.25 µM)		1 (≈ 2.25 µM)	1 (≈ 2.25 µM)		1 (≈ 2.25 µM)		1 (≈ 2.25 µM)		1 (≈ 2.25 µM)			MIC ([1]; strain NB65044-CDS0008, knockout acrR): 0.5 µg/mL (≈ 1.13 µM); MIC ([1]; strain NB65044-CDS0011 (acrR mutant selected on 8 μg/mL LBM415, stop codon)): 1 µg/mL (≈ 2.25 µM); MIC ([1]; strain NB65044-CDS0014 (acrR mutant selected on 8 μg/mL LBM415, L→P)): 1 µg/mL (≈ 2.25 µM)
O=C(N[C@H](CO)[C@H](O)c1ccc([N+](=O)[O-])cc1)C(Cl)Cl [chloramphenicol]																			unaffected		
